Assay results from PubChem BioAssay (NCI).
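Grown in 96-well plates, cells were treated for 48 hours with each compound at five concentrations. Insufficient inhibition: endpoint recorded as highest concentration tested. GI50 is the concentration that inhibits growth by half. TGI is the concentration that stops growth completely.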

Experiments:
Assay in all cases: NCI tumour cell line growth inhibition, 48 h
[1] = system: 786-0 renal
[2] = system: A549 NSCLC
[3] = system: ACHN renal
[4] = system: BT-549 breast
[5] = system: CAKI-1 renal
[6] = system: CCRF-CEM leukemia
[7] = system: COLO 205 colon
[8] = system: DU-145 prostate
[9] = system: EKVX NSCLC
[10] = system: HCT-116 colon
[11] = system: HCT-15 colon
[12] = system: HOP-62 NSCLC
[13] = system: HS 578T breast
[14] = system: HT29 colon
[15] = system: IGROV1 ovarian
[16] = system: K-562 leukemia
[17] = system: KM12 colon
[18] = system: LOX IMVI melanoma
[19] = system: M14 melanoma
[20] = system: MCF7 breast
[21] = system: MDA-MB-231 breast
[22] = system: MDA-MB-435
[23] = system: NCI-H226 lung
[24] = system: NCI-H23 lung
[25] = system: NCI-H460 lung
[26] = system: NCI-H522 lung
[27] = system: NCI/ADR-RES ovarian
[28] = system: OVCAR-3 ovarian
[29] = system: OVCAR-4 ovarian
[30] = system: OVCAR-5 ovarian
[31] = system: OVCAR-8 ovarian
[32] = system: PC-3 prostate
[33] = system: RPMI-8226 leukemia
[34] = system: SF-268 CNS
[35] = system: SF-295 CNS
[36] = system: SK-MEL-2 melanoma
[37] = system: SK-MEL-28 melanoma
[38] = system: SK-MEL-5 melanoma
[39] = system: SK-OV-3 ovarian
[40] = system: SN12C renal
[41] = system: SNB-19 CNS
[42] = system: SNB-75 CNS
[43] = system: SW-620 colon
[44] = system: T-47D breast
[45] = system: TK-10 renal
[46] = system: U251 CNS
[47] = system: UACC-257 melanoma
[48] = system: UACC-62 melanoma
[49] = system: UO-31 renal

## CC(=O)c1ccc(Nc2cc(-n3nnc4ccccc43)nc3ccccc23)cc1
[1]
  GI50: 11.9 µM
  TGI: 30.1 µM
[2]
  GI50: 32.3 µM
  TGI: > 100 µM
[3]
  GI50: 13.2 µM
  TGI: 26.9 µM
[4]
  GI50: 16 µM
  TGI: 66.2 µM
[5]
  GI50: 13.2 µM
  TGI: 35.2 µM
[6]
  GI50: 5.18 µM
  TGI: > 100 µM
[7]
  GI50: 30.6 µM
  TGI: > 100 µM
[8]
  GI50: 14.6 µM
  TGI: 82 µM
[9]
  GI50: 9.41 µM
  TGI: 67.4 µM
[10]
  GI50: 32.9 µM
  TGI: > 100 µM
[11]
  GI50: > 100 µM
  TGI: > 100 µM
[12]
  GI50: 4.51 µM
  TGI: 18.2 µM
[13]
  GI50: 9.02 µM
  TGI: 28.8 µM
[14]
  GI50: 12.9 µM
  TGI: > 100 µM
[15]
  GI50: 55.7 µM
  TGI: > 100 µM
[16]
  GI50: > 100 µM
  TGI: > 100 µM
[17]
  GI50: 4.16 µM
  TGI: 25.6 µM
[18]
  GI50: 13.4 µM
  TGI: > 100 µM
[19]
  GI50: 10.9 µM
  TGI: 44.6 µM
[20]
  GI50: 36.3 µM
  TGI: > 100 µM
[21]
  GI50: 4.41 µM
  TGI: 35.7 µM
[22]
  GI50: 19.7 µM
  TGI: 94.6 µM
[23]
  GI50: 14.8 µM
  TGI: 59.4 µM
[24]
  GI50: 15.8 µM
  TGI: 72.6 µM
[25]
  GI50: 29.1 µM
  TGI: > 100 µM
[26]
  GI50: 35.4 µM
  TGI: > 100 µM
[27]
  GI50: 12 µM
  TGI: 46 µM
[28]
  GI50: 14 µM
  TGI: 37.5 µM
[29]
  GI50: 10.7 µM
  TGI: 61.9 µM
[30]
  GI50: 26.2 µM
  TGI: > 100 µM
[31]
  GI50: 7.83 µM
  TGI: 43.4 µM
[32]
  GI50: 13.9 µM
  TGI: 72.4 µM
[33]
  GI50: 2500 nM
  TGI: 14 µM
[34]
  GI50: 25.1 µM
  TGI: > 100 µM
[35]
  GI50: 4.96 µM
  TGI: 13.6 µM
[36]
  GI50: 27.6 µM
  TGI: > 100 µM
[37]
  GI50: 15.5 µM
  TGI: > 100 µM
[38]
  GI50: 26.6 µM
  TGI: 75.4 µM
[39]
  GI50: 20.5 µM
  TGI: 43.4 µM
[40]
  GI50: 6.24 µM
  TGI: 35.4 µM
[41]
  GI50: 47.6 µM
  TGI: > 100 µM
[42]
  GI50: 19.6 µM
  TGI: 60.5 µM
[43]
  GI50: > 100 µM
  TGI: > 100 µM
[44]
  GI50: 18.9 µM
  TGI: 87.1 µM
[45]
  GI50: 9.46 µM
  TGI: 24.3 µM
[46]
  GI50: 14.4 µM
  TGI: 44.1 µM
[47]
  GI50: 45 µM
  TGI: > 100 µM
[48]
  GI50: 14.5 µM
  TGI: 62.8 µM
[49]
  GI50: 23 µM
  TGI: > 100 µM
